# Test results taken from publication PMC7714071, “Interaction of amyloid beta with humanin and acetylcholinesterase is modulated by ATP” (FEBS Open Bio, 2020).
# Tested on: A549 cells
# Assay: MTT cell viability, A549
# Format: cell-based, human
# Conditions: 48 h, Fig. 7A; for effect of ATP on viability in HN-ID media: HN-immunodepleted media, versus no ATP; for effect on cell viability: control media, three experiments in triplicate
# Procedure: Human NSCLC cell lines, A549 (ATCC CCL‐185) and H1299 (ATCC CRL‐5803), were purchased from the American Type Culture Collection (ATCC, Manassas, VA, USA). Cells were seeded as we reported earlier in 5 mL HyClone Dulbecco's modified Eagle's medium/nutrient mixture F‐12 (DMEM/F12) (GE Healthcare Life Sciences, Pittsburgh, PA, USA), supplemented with 10% Fetalgro bovine growth serum (FBS; RMBIO, Missoula, MT, USA), 50 U·mL^−1 penicillin, and […] streptomycin (Invitrogen, Life Technologies, Carlsbad, CA, USA) in 25‐cm^2 tissue culture flasks, and allowed to grow overnight in an incubator at 37 °C, 95% humidity, and 5% CO2. The cells were counted after trypan blue staining, with a hemocytometer.
# The 3‐(4,5‐dimethylthiazol‐2‐yl)‐2,5‐diphenyl‐tetrazolium bromide (MTT) reduction assay (Sigma‐Aldrich), used to measure cell viability, was carried out as we reported earlier. Cells were seeded in 96‐well plates as indicated in 200 μL 10% FBS‐supplemented media per well and maintained overnight at 95% humidity and 5% CO2. After an overnight incubation, the media were replaced with 200 μL serum‐free media, and the cells were further incubated, without or with different treatments, for 24, 48, or 72 h. The final concentration of DMSO in each well never exceeded 0.1%. The cells were then incubated for 4 h with MTT (0.5 mg·mL^−1) in the dark. The media were carefully removed, and DMSO (100 μL) was added to dissolve the formazan crystals. The absorbance was measured at 570 nm in a plate reader. Untreated cells or wells containing only DMSO and media were used as a positive and negative control, respectively. Statistical analysis was conducted using […] PRISM version 8.4.3 for Windows. Significant values were considered at P < 0.05 and more significant values at P < 0.01, compared with the control.
# Conditioned media were immunodepleted (ID) according to the methods previously described and our recently published report. Briefly, specific antibodies were bound to ELISA wells overnight (1 : 1000 dilution). The wells were then blocked and washed, then 300 μL of the conditioned medium (0.5 μg·μL^−1) treated as indicated, 72 h postserum starvation, was incubated with the antibodies bound to ELISA wells for 24 h. The ID media were then carefully removed and analyzed for the presence of the target protein or peptide by ELISA. The same amount of protein (3 µL of 600 µg·mL^−1 total protein) of each sample was analyzed in the experiments. Significant depletion (95–100%) was observed upon using each of the antibodies employed in this study.
# Since addition of ATP appears to increase binding of HN to Aβ, and conversely, decreases the interaction of Aβ with AChE (Figs 3, 4, 5, 6), we tested the effect of added ATP on A549 and H1299 cell viability (Fig. 7). Exogenously added ATP at either 100 µM or 1 mM had no effect on viability of either A549 (Fig. 7A) or H1299 cells (Fig. 7B). […] To determine the effect of ID of AChE or HN in the absence or presence of added ATP on cell viability, ID media were prepared by first seeding 0.2 × 10^5 cells per well in 96‐well plates in 10% FBS‐supplemented media. The next day, the cells were incubated in serum‐free medium for 72 h, then ID of AChE or HN as described in Materials and methods. For cell viability assays, cells were seeded in 96‐well plates at 0.2 × 10^5 cells per well in 200 µL 10% FBS‐supplemented media followed by incubation in serum‐free medium for 12 h, then treated with the ID media for 48 h. […]
structure (smiles),measurement,setting,value
"Nc1ncnc2c1ncn2[C@@H]1O[C@H](COP(=O)(O)OP(=O)(O)OP(=O)(O)O)[C@@H](O)[C@H]1O [ATP, Adenosine triphosphate]",effect of ATP on viability in AChE-depleted media,AChE-immunodepleted media,did not affect cell viability
same,effect of ATP on viability in HN-ID media,ATP 100 µM,No change in cell viability
same,effect on cell viability,ATP 100 µM,no effect
same,effect of ATP on viability in HN-ID media,ATP 1 mM,No change in cell viability
same,effect on cell viability,ATP 1 mM,no effect
